Holding throughout (assay): DTP human tumour cell line panel, 48 h
Test [1] deals with SK-MEL-2.
Test [2] concerns U-251.
Test [3] has as its system NCI-H23.
Test [4] deals with NCI-H226.
For test [5], the system named is SNB-19.
For test [6], the system named is UACC-257.
For test [7], the system named is 786-0.
Test [8] relates to T47D.
The test system of test [9] is UACC-62.
Test [10] deals with SW-620.
The subject of test [11] is SK-MEL-5.
Test [12] deals with TK-10.
Test [13] deals with RXF 393.
Test [14] concerns BT-549.
For test [15], the system named is CCRF-CEM.
Test [16] concerns Malme-3M.
The test system of test [17] is COLO 205.
Test [18] has as its system MDA-N.

Each structure is given as a SMILES string.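 Where inhibition never reached the appropriate level, the endpoint shown equals the highest concentration tested. Otherwise, values were interpolated linearly from a five-concentration, 48-hour dose response in 96-well plates. Here, GI50 denotes the concentration required for 50% inhibition of growth.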 Active and inactive are the calls of the source. Cut-off read from the data, not from the text of the source: active = GI50 up to about 1.1 µM and inactive = higher. Where a SMILES comes first, the peptide text is derived from it. The star is where a group is joined. Cbz = O=C(OCc1ccccc1)*; Boc = CC(C)(C)OC(=O)*; OSu = O=C1CCC(=O)N1O*; Bn = c1ccc(C*)cc1

As to `C[N+](C)(C)CC1CCCc2ccccc2C1=O` (configuration not stated), the GI50 was 10.5 µM (inactive) in test [1]; 6.71 µM (inactive) in [2]; 17.9 µM (inactive) in [3]; 21.9 µM (inactive) in [4]; 29 µM (inactive) in test [5]; 13.7 µM (inactive) in test [6]. Further, the GI50 was 2.44 µM (inactive) in test [7]; 1.73 µM (inactive) in [8]; 12.2 µM (inactive) in test [9]; 2.04 µM (inactive) in test [10]; 6.59 µM (inactive) in test [11]; 21 µM (inactive) in test [12]. Besides, the GI50 in [13] is 6.28 µM (inactive); in test [14], 19.1 µM (inactive); in [15] it was 2.32 µM (inactive); in [16] it was 5.79 µM (inactive); in test [17], 22 µM (inactive).
As to `CC(NC(=O)OC(C)(C)C)C(=O)NC(Cc1ccccc1)C(=O)NCC(=O)Oc1c(Cl)c(Cl)c(Cl)c(Cl)c1Cl` (configuration not stated), the GI50 in test [1] was 20.7 µM (inactive); in [2] it was 19.7 µM (inactive); in [3], 18.7 µM (inactive); in [4], 17.7 µM (inactive); in [5], 29.3 µM (inactive); in test [6], 20 µM (inactive). Moreover, the GI50 is 21.2 µM (inactive) in test [7]; 22.3 µM (inactive) in test [9]; 20.1 µM (inactive) in [10]; 13.6 µM (inactive) in [11]; 27 µM (inactive) in test [12]; 17.2 µM (inactive) in test [13]. Further, the GI50 in test [14] was 23.5 µM (inactive); in [18] it was 28.2 µM (inactive); in test [16], 20.7 µM (inactive); in test [17], 29.7 µM (inactive).
Turning to `O=C(/C=C/c1ccccc1)CSc1nc[nH]n1`, the GI50 was > 100 µM (inactive) in [1]; 37.1 µM (inactive) in test [2]; > 100 µM (inactive) in test [3]; > 100 µM (inactive) in test [4]; > 100 µM (inactive) in test [5]; > 100 µM (inactive) in [6]. Moreover, the GI50 was > 100 µM (inactive) in [7]; > 100 µM (inactive) in [9]; 65.5 µM (inactive) in test [10]; 38.5 µM (inactive) in test [11]; > 100 µM (inactive) in test [12]; > 100 µM (inactive) in test [13]. Besides, the GI50 in test [14] was > 100 µM (inactive); in test [18] it was > 100 µM (inactive); in test [15], 34.8 µM (inactive); in test [16] it was > 100 µM (inactive); in [17] it was > 100 µM (inactive).
With `CCN(CC)C(=S)N/N=C(/c1ccccc1)c1ccccn1`, the GI50 in [1] was 0.711 µM (active); in test [2], 0.0995 µM (active); in test [3], 0.267 µM (active); in test [4], 1.66 µM (inactive); in [5], 2.84 µM (inactive); in [6], 0.107 µM (active). Also, the GI50 is 0.145 µM (active) in test [7]; 0.121 µM (active) in [10]; 0.209 µM (active) in test [11]; 0.439 µM (active) in test [12]; 0.277 µM (active) in [13]; 0.471 µM (active) in test [14]. In addition, the 50% growth inhibitory concentration (GI50) was 1.07 µM (active) in test [18], 0.024 µM (active) in test [15], 0.929 µM (active) in test [16] and 0.0275 µM (active) in test [17].
For the molecule `COc1cccc2c(=O)c3c(O)c4cc(N(C)C)ccc4c(OC(C)=O)c3oc12`, the GI50 in [1] is 16.3 µM (inactive); in test [2], 14 µM (inactive); in test [3], 17.2 µM (inactive); in test [4], 23.2 µM (inactive); in test [5] it was 33.2 µM (inactive); in test [6], 12.9 µM (inactive). The GI50 in test [7] was 11.7 µM (inactive); in [9], 12.9 µM (inactive); in test [10], 7.41 µM (inactive); in test [11], 12.6 µM (inactive); in test [12], 15.3 µM (inactive); in [13] it was 4.72 µM (inactive). Also, the GI50 was 10.2 µM (inactive) in test [14]; 13.7 µM (inactive) in test [18]; 5.33 µM (inactive) in test [15]; 2.56 µM (inactive) in test [16]; 4.1 µM (inactive) in test [17].
For the molecule `Cn1nc2ccc(Nc3cc(=O)[nH]c4ccc5nn(C)nc5c34)cc2n1`, the GI50 in test [1], in test [2], in [3], in [4], in test [5] and in [6] was > 100 µM (inactive) each time. The GI50 in [7], in [8], in test [9], in test [10], in test [11] and in test [12] was > 100 µM (inactive) each time. For the same molecule, the GI50 in [13], in test [14], in [15], in test [16] and in test [17] was > 100 µM (inactive) throughout.
Turning to `CC(C)(C)OC(=O)NC(Cc1ccc(OCc2ccccc2)cc1)C(=O)NC(CCCCNC(=O)OCc1ccccc1)C(=O)ON1C(=O)CCC1=O` (configuration not stated) (Boc-Tyr(Bn)-Lys(Cbz)-OSu; configuration not given here), the GI50 is 17.4 µM (inactive) in [1]; 17 µM (inactive) in [2]; 17.8 µM (inactive) in [3]; 29.2 µM (inactive) in [4]; 16.7 µM (inactive) in test [5]; 34.3 µM (inactive) in test [6]. Also, the GI50 in test [7] is 18.9 µM (inactive); in test [9], 18.2 µM (inactive); in test [10], 20.7 µM (inactive); in test [11] it was 22.4 µM (inactive); in [12], 29.6 µM (inactive); in test [13], 16.9 µM (inactive). The GI50 is 21.6 µM (inactive) in [14], 15.7 µM (inactive) in test [18], 23.1 µM (inactive) in [16] and 27 µM (inactive) in test [17].
For `O=C(/C=C/c1ccc(Oc2cc(C(=O)/C=C/c3ccc(O)cc3)c(O)cc2O)cc1)c1ccc(O)cc1O` [RHUSCHALCONE II], the GI50 was 7.6 µM (inactive) in test [1]; 3.89 µM (inactive) in test [2]; 6.19 µM (inactive) in test [3]; 6.89 µM (inactive) in test [5]; 12.7 µM (inactive) in test [6]; 3.59 µM (inactive) in test [7]. Besides, the GI50 in test [8] is 5.93 µM (inactive); in [9], 4.62 µM (inactive); in [10] it was 4.82 µM (inactive); in test [11] it was 4.4 µM (inactive); in test [12], 3.07 µM (inactive); in [13], 4.97 µM (inactive). Moreover, the GI50 in test [14] is 9.84 µM (inactive); in test [15] it was 2.51 µM (inactive); in test [16] it was 10.6 µM (inactive); in test [17], 2.61 µM (inactive).
